# Legend:
# [1] = system: human adult dermal fibroblasts; test: Three-dimensional transmigration model (collagen gel into fibrin gel); format: cell-based; conditions: for inhibition of transmigration by peptide added to the fibrin gel: transmigration stimulated by PR or PDGF-BB
# Method: (§1) Primary cultures of human adult dermal fibroblasts were cultured in Dulbecco's modified Eagle's medium (DMEM, Life Technologies) supplemented with 100 U/ml penicillin and 100 μg/ml streptomycin, 42 mmol/l sodium bicarbonate and 10% fetal bovine serum (FBS, Atlanta Biologicals, Norcross, Ga.) at 37° C. and 5% CO2/95% air in a humidified atmosphere. The cells were used between passages 4 and 12.
# (§2) Fibroblast cultures at 80% confluence were harvested by treatment with 0.05% trypsin/0.02% EDTA (ethylenediaminetetraacetic acid). Trypsin was inactivated by addition of soy bean trypsin inhibitor in PBS containing 0.2% BSA. The cells were washed twice with DMEM+10% FBS and resuspended at a concentration of 1×10^6 cells/ml. The fibroblasts were mixed with DMEM (5×), 10% FBS and neutralized collagen (Vitrogen 100, Celtrix Labs., Santa Clara, Calif.). In some experiments, FBS was replaced by 30 ng/ml PDGF-BB and 2% BSA. 0.6 ml aliquots of the cell mixture were added to the wells of a 24-well tissue culture plate, precoated with 2% BSA, and the collagen was allowed to polymerize at 37° C. The final concentration of collagen was 1.8 mg/ml and each gel contained 6×10^4 cells. After two hours incubation, the gels were gently detached from the plastic surface to allow contraction, 0.5 ml DMEM+10% FBS was added, and the gels were incubated overnight at 37° C. in 5% CO2.
# Fibrinogen was mixed with DMEM (5×) and 0.5 U/ml thrombin (New York Blood Center, New York, N.Y.) so that the final concentration of fibrinogen was 300 μg/ml. Aliquots of 450 μl were added to the wells of a 24-well plate, and after a 2 hour incubation at 37° C. in 5% CO2, the polymerized gels were dried overnight at room temperature under sterile conditions.
# Dried fibrin fibril-coated dishes were washed once with PBS and contracted collagen gels were placed on the surface. Fibrinogen, at a final concentration of 300 μg/ml, was mixed with DMEM (5×) and 1.0 U/ml thrombin. When needed, other supplements, such as growth factors, were added to the mixture. The collagen gels were surrounded with the fibrinogen solution so that the fibrin gel was level with the collagen gel (FIG. 1)
# The number of migrated cells was evaluated under a Nikon inverted phase microscope by counting identifiable cell nuclei located outside of the contracted collagen gel, either on the fibrin fibril substrate (two-dimensional model) or within the fibrin gel (three-dimensional model). Each condition was assayed in triplicate and experiments were repeated at least three times.
# [2] = system: human adult dermal fibroblasts; test: Two-dimensional outmigration model (collagen gel onto dried fibrin fibrils); format: cell-based; conditions: collagen gel surrounded with liquid medium instead of fibrin gel
# Method: as §1
# as §2, with “The final concentration of collagen was 1.8 mg/ml and each gel contained 6×10^4 cells. After two hours incubation, the gels were gently detached from the plastic surface to allow contraction, 0.5 ml DMEM+10% FBS was added, and the gels were incubated overnight at 37° C. in 5% CO2.” left out
# The number of migrated cells was evaluated under a Nikon inverted phase microscope by counting identifiable cell nuclei located outside of the contracted collagen gel, either on the fibrin fibril substrate (two-dimensional model) or within the fibrin gel (three-dimensional model). […]
molecule,measurement,setting,value
"NCCCCCC(=O)O [ε-ACA, ε-Amino-n-Caproic acid]",inhibition of transmigration induced by PDGF-BB (protease inhibitors),[1]; in words,inhibited
same,reduction of invasion of the fibrin gel,"[1]; transmigration induced by PDGF-BB, 500 μg/ml ε-ACA",about 80%
same,inhibition of outmigration onto dried fibrin fibrils induced by PDGF-BB,[2],not inhibited
GRGDSP [synthetic RGD peptide],inhibition of transmigration by peptide added to the fibrin gel,[1],inhibited
GRGESP [control-peptide],inhibition of transmigration by peptide added to the fibrin gel,[1],not
"PDGF-BB: Recombinant platelet-derived growth factor from ZymoGenetics (protein, UniProt P01127 82-190, looked up) Platelet-derived growth …: SLGSLTIAEPAMIAECKTRTEVFEISRRLIDRTNANFLVWPPCVEVQRCSGCCNNRNVQCRPTQVQLRPVQVRKIEIVRKKPIFKKATVTLEDHLACKCETVAAARPVT",induction of transmigration of fibroblasts from the collagen gel into the fibrin gel,[1]; counted after one day,could be induced
